Results as given in US5763444A, “Antidepressant 1-arylalkyl-4-(alkoxy pyridinyl)-and 4-(alkoxypyrimidinyl) piperazine derivatives” (Bristol-Myers Squibb Company, priority 1996, dated 1998).
Counter-ions that a name gives are not always drawn.

biological target: T1, synaptosomal serotonin uptake (Rattus norvegicus, UniProt P31652); assay: inhibition of synaptosomal reuptake of tritiated serotonin (5-HT inhibition assay); type: biochemical; design: key: *: Compounds designated with an asterisk are most preferred, based on abilities to inhibit synoptosomal serotonin uptake; details: among compounds with IC50 less than 100 nM
T1 construct: from tissue
T1 sequence (P31652 whole entry): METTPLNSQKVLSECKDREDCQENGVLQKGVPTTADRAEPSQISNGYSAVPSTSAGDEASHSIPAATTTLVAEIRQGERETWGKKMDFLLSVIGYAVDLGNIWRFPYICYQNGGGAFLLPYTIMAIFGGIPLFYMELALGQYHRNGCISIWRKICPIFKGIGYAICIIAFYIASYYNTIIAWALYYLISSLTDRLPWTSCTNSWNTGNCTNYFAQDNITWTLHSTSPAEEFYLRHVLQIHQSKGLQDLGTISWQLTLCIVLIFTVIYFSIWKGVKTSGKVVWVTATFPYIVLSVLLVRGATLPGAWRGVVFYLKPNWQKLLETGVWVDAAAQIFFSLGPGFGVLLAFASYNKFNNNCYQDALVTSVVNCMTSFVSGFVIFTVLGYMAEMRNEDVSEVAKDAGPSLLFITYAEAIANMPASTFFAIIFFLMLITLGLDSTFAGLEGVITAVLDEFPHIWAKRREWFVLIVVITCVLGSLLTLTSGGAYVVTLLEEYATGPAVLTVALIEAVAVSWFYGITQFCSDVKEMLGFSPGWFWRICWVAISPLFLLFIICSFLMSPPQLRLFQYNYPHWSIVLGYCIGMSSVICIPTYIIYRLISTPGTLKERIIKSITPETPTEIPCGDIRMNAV
Method: Determination of endogenous monoaminergic re-uptake inhibition values both for serotonin and norepinephrine was accomplished using test methods described by P. Skolnick, et al., Br. J. Pharmacology, (1985), 86, pp. 637-644; with only minor modifications. In vitro IC50 (nM) test values were determined for representative compounds of Formula I based on their inhibition of synaptosomal re-uptake of tritiated serotonin.
Compounds of the invention were tested for their ability to inhibit serotonin reuptake. Determination of endogenous monoaminergic reuptake inhibition values for serotonin was accomplished using test methods described by P. Skolnick et al., Br. J. Pharmacology (1985), 86, pp. 637-644; with only minor modifications.
In vitro IC50 (nM) test values were determined for representative compounds of Formula I based on their inhibition of synaptosomal reuptake of tritiated serotnin.

Compound	asterisk designation: most preferred, based on ability to inhibit synaptosomal serotonin uptake
COc1cccnc1N1CCN(CCC2CSc3ccccc32)C(C)C1.Cl (stereo not shown) [Example 6, 1-[2-(2,3-dihydro-benzo[b]thien-3-yl)ethyl]-4-(3-methoxy-2-pyridinyl)-2-methylpiperazine hydrochloride]	*
COc1cccnc1N1CCN(CCCC2CSc3ccccc32)C(C)C1 (stereo not shown) [Example 7, hydrochloride]	*
COc1cccnc1N1CCN(CCC2CSc3ccccc32)CC1.Cl (stereo not shown) [Example 17, 1-[2-(2,3-dihydro-benzo[b]thien-3-yl)ethyl]-4-(3-methoxy-2-pyridinyl)piperazine hydrochloride]	*
COc1cccnc1N1CCN(CCCc2coc3ccc(F)cc23)CC1.Cl [Example 20, 1-[3-(5-fluorobenzo[b]furan-3-yl)propyl]-4-(3-methoxy-2-pyridinyl)piperazine hydrochloride]	*
COc1cccnc1N1CCN(CCCc2coc3ccc(Cl)cc23)CC1.Cl [Example 25, 1-[3-(5-chlorobenzo[b]furan-3-yl)propyl]-4-(3-methoxy-2-pyridinyl)piperazine hydrochloride]	*
COc1cncnc1N1CCN(CCCc2coc3ccc(Cl)cc23)C(C)C1.Cl (stereo not shown) [Example 27, 1-[3-(5-chlorobenzo[b]furan-3-yl)propyl]-4-(5-methoxy-4-pyrimidinyl)-2-methylpiperazine hydrochloride]	*
COc1cncnc1N1CCN(CCCc2coc3ccccc23)CC1C.Cl (stereo not shown) [Example 28, 1-[3-(benzo[b]furan-3-yl)propyl]-4-(5-methoxy-4-pyrimidinyl)-3-methylpiperazine hydrochloride]	*
COc1cccnc1N1CCN(CCCc2coc3ccc(C)cc23)CC1.Cl [Example 29, 1-[3-(5-methylbenzo[b]furan-3-yl)propyl]-4-(3-methoxy-2-pyridinyl)piperazine hydrochloride]	*
COc1cncnc1N1CCN(CCCc2coc3ccc(C)cc23)C(C)C1.Cl (stereo not shown) [Example 30, 1-[3-(5-methylbenzo[b]furan-3-yl)propyl]-4-(5-methoxy-4-pyrimidinyl)-2-methylpiperazine hydrochloride]	*
COc1cccnc1N1CCN(CCCc2coc3ccccc23)CC1.Cl [Example 31, 1-[3-(benzo[b]furan-3-yl)propyl]-4-(3-methoxy-2-pyridinyl)piperazine hydrochloride]	*
COc1cncnc1N1CCN(CCCc2coc3ccccc23)C(C)C1 (stereo not shown) [Example 32, 1-[3-(benzo[b]furan-3-yl)propyl]-4-(5-methoxy-4-pyrimidinyl-2-methylpiperazine hydrochloride]	*
COc1cccnc1N1CCN(CCc2coc3ccccc23)CC1.Cl [Example 33, 1-[2-(benzo[b]furan-3-yl)ethyl]-4-(3-methoxy-2-pyridinyl)piperazine hydrochloride]	*
COc1cccnc1N1CCN(CCCc2csc3ccccc23)C(C)C1.Cl (stereo not shown) [Example 41, 1-[3-(benzo[b]thien-3-yl)propyl]-4-(3-methoxy-2-pyridinyl)-2-methylpiperazine hydrochloride]	*
COc1cncnc1N1CCN(CCCc2csc3ccccc23)C(C)C1.Cl (stereo not shown) [Example 50, 1-[3-(benzo[b]thien-3-yl)propyl]-4-(5-methoxy-4-pyrimidinyl)-2-methylpiperazine hydrochloride]	*
COc1cncnc1N1CCN(CCCc2csc3ccccc23)CC1C.Cl (stereo not shown) [Example 51, 1-[3-(benzo[b]thien-3-yl)propyl]-4-(5-methoxy-4-pyrimidinyl)-3-methylpiperazine hydrochloride]	*
COc1cncnc1N1CCN(CCCc2csc3ccc(F)cc23)CC1.Cl [Example 52, 1-[3-(5-fluorobenzo[b]thien-3-yl)propyl]-4-(5-methoxy-4-pyrimidinyl)piperazine hydrochloride]	*
COc1cncnc1N1CCN(CCCc2csc3ccc(F)cc23)CC1C.Cl (stereo not shown) [Example 55, 1-[3-(5-fluorobenzo[b]thien-3-yl)propyl]-4-(5-methoxy-4-pyrimidinyl)-3-methylpiperazine hydrochloride]	*
COc1cccnc1N1CCN(CCCc2csc3ccccc23)CC1.O=C(O)/C=C/C(=O)O [Example 56, 1-[3-(benzo[b]thien-3-yl)propyl]-4-(3-methoxy-2-pyridinyl)piperazine fumarate]	*
COc1cccnc1N1CCN(CCc2csc3ccccc23)CC1.Cl [Example 57, 1-[2-(benzo[b]thien-3-yl)ethyl]-4-(3-methoxy-2-pyridinyl)piperazine hydrochloride]	*
COc1cccnc1N1CCN(CCc2csc3ccccc23)C(C)C1.Cl (stereo not shown) [Example 58, 1-[2-(benzo[b]thien-3-yl)ethyl]-4-(3-methoxy-2-pyridinyl)-2-methylpiperazine hydrochloride]	*
COc1cncnc1N1CCN(CCCc2csc3ccccc23)CC1.Cl [Example 59, 1-[3-(benzo[b]thien-3-yl)propyl]-4-(5-methoxy-4-pyrimidinyl)piperazine hydrochloride]	*
COc1cc(Cl)cnc1N1CCN(CCCc2csc3ccccc23)C(C)C1.Cl (stereo not shown) [Example 60, 1-[3-(benzo[b]thien-3-yl)propyl]-4-(5-chloro-3-methoxy-2-pyridinyl)-2-methylpiperazine hydrochloride]	*
COc1cncnc1N1CCN(CCCc2csc3ccc(F)cc23)C(C)C1.Cl (stereo not shown) [Example 63, 1-[3-(5-fluorobenzo[b]thien-3-yl)propyl]-4-(5-methoxy-4-pyrimidinyl)-2-methylpiperazine hydrochloride]	*
COc1cncnc1N1CCN(CCc2csc3ccccc23)CC1C.Cl (stereo not shown) [Example 64, 1-[2-(benzo[b]thien-3-yl)ethyl]-4-(5-methoxy-4-pyrimidinyl)-3-methylpiperazine hydrochloride]	*
COc1cncnc1N1CCN(CCCc2csc3ccc(C#N)cc23)CC1.Cl [Example 65, 1-[3-(5-cyanobenzo[b]thien-3-yl)propyl]-4-(5-methoxy-4-pyrimidinyl)piperazine hydrochloride]	*
